Counter-ions that a name gives are not always drawn.

Here are results for twelve molecules from patent US10179777B2, “3-(1H-benzimidazol-2-yl)-1H-pyridin-2-one derivatives” (MERCK PATENT GMBH, priority 2015, dated 2019).

Test [1] deals with T1, ALK2 (GST-modified kinase domain ACVR1(145-509)) (Homo sapiens, UniProt Q04771).
T1 construct: N-terminally GST-modified kinase domain ACVR1(145-509); GST (N)
T1 sequence (Q04771 145-509): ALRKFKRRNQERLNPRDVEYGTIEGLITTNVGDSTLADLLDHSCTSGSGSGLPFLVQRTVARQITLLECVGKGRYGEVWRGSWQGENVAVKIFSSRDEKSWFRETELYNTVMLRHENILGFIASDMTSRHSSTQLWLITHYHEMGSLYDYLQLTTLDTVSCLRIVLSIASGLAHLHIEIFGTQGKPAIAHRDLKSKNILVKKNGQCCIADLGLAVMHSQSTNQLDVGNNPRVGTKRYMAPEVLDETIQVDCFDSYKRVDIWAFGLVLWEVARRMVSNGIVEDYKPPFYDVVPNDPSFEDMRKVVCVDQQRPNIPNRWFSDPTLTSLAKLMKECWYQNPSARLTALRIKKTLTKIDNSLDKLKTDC
The experiment in a line: ALK2 kinase inhibition assay (33P-ATP filter binding, Reaction Biology). Format: biochemical. The following applies: casein substrate, 20 μM ATP (Km ATP), 120 min ambient temperature. The essentials:
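Human ACVR1(145-509) kinase domain, N-terminal GST-tagged, with 1 mg/ml casein substrate and 33P-ATP in 20 mM HEPES pH 7.5, 10 mM MgCl2, 1 mM EGTA, 2 mM DTT, 1% DMSO. Incubated 120 min at ambient temperature, then spotted on P81 filters and washed. Background-subtracted activity taken as % of DMSO control; IC50 from curve fit.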

Test [2] has as its target T2, ALK1 (GST-modified kinase domain ACVRL1 (139-503)) (Homo sapiens, UniProt P37023).
T2 construct: N-terminally GST-modified kinase domain ACVRL1 (139-503); GST (N)
T2 sequence (P37023 139-503): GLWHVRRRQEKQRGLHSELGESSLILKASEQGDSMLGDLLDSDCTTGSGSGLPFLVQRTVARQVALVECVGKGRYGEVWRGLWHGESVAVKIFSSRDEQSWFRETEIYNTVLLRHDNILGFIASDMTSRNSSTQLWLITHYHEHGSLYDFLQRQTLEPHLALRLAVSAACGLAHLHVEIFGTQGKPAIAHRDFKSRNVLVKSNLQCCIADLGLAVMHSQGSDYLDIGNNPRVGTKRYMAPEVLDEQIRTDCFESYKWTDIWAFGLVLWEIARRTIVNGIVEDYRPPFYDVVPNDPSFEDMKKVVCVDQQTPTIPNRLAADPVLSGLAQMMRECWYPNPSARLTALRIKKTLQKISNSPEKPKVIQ
The experiment in a line: ALK1 kinase inhibition assay (33P-ATP filter binding, Reaction Biology). Format: biochemical. The following applies: casein substrate, 100 μM ATP (Km ATP), 120 min ambient temperature. In short, it runs like this:
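GST-tagged kinase domain with 20 mg/ml casein substrate in 20 mM HEPES pH 7.5, 10 mM MgCl2, 1 mM EGTA, 2 mM DTT, 1% DMSO; 120 min at ambient temperature. Phosphorylation read by P81 filter binding; background-subtracted activity as percent of DMSO vehicle, curve-fit for IC50.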

Test [3] deals with T3, ALK5 (TGFβR1; GST-modified TGFBR1 (200-503)) (Homo sapiens, UniProt P36897).
T3 construct: Using GST-Modified TGFBR1 (200-503); GST
T3 sequence (P36897 200-503): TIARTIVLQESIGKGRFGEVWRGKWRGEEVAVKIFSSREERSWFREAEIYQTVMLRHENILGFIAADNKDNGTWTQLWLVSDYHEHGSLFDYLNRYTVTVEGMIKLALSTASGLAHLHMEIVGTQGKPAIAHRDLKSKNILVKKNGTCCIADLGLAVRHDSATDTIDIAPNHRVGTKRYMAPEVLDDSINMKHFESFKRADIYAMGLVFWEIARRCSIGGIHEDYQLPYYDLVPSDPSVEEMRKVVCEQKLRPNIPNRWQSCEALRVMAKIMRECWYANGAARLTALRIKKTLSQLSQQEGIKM
The experiment in a line: ALK5 kinase inhibition assay (33P-ATP filter binding, Reaction Biology). The format is biochemical. The following applies: casein substrate, 200 μM ATP. How it is done:
The protein sequences of the kinases targeted and accompanying information are described in publically available data base http://www.uniprot.org/uniprot/for ALK1 www.uniprot.org/uniprot/P37023, for ALK2 www.uniprot.org/uniprot/Q04771 and for ALK5 www.uniprot.org/uniprot/P36897. IC50 determination of the novel inhibitors described was performed at Reaction Biology Corp., Malvern, Pa., USA, with assay conditions open to public at www.reactionbiology.com/webapps/site/KinaseDetail.aspx?page=Kinases&id=1, and www.reactionbiology.com/webapps/site/Kinase Assay Protocol.aspx. In addition, they were specified previously in Anastassiadis et al. Nat. Biotechnol. 29(11): 1039-1045. doi:10.1038/nbt.2017.
A3) ALK5 Kinase Inhibition Assay Was Performed Similar to Procedures A1 and A2 Using GST-Modified TGFBR1 (200-503) and 1 mg/ml Casein as Substrate at 200 μM ATP.

The subject of test [4] is ALK1-mediated SMAD1/5 phosphorylation in HUVEC cells. As to the kind of experiment: Cell-based immunofluorescence assay for ALK1-mediated SMAD1/5 phosphorylation in HUVEC cells. The following applies: Homo sapiens, 1.5 ng/ml BMP-9 with compound for 2 h, % nuclei with pSMAD1/5 signal, read-out: Smad 1/5 IC50. The text has this: In vitro cell-based Immunofluorescence-Assay for identification of inhibitors of ALK1-mediated SMAD1/5 phosphorylation in HUVEC cells:
ALK1 is a type I cell-surface receptor for the TGF-β superfamily of ligands. In adults ALK1 is mainly expressed on activated endothelial cells, e.g. during wound healing or in tumor angiogenesis. BMP9 and BMP10 are high affinity ligands for ALK1.
BMP9 and BMP10 binding leads to the phosphorylation of so-called Smad1 at Ser463 and Ser465 in the carboxy-terminal motif SSXS, as well as Smad5 and Smad8 at their corresponding sites. These phosphorylated Smads dimerize with the coactivating Smad4 and translocate to the nucleus, where they stimulate transcription of target genes.
Primary endothelial cells (HUVEC: Human Umbilical Vein Endothelial Cells; supplier Promocell) are cultivated in the culture medium obtained from Promocell (with supplements corresponding to 5% FCS) for maximum 5 passages, seeded into black 384-well culture plates with clear bottom (3000 cells/well/30 μl), and incubated for 16-24 hours at 37° C., 5% CO2 and 90% rH.
The following day cells were serum-starved for 2-3 h in order to stop TGF-ß-mediated signalling derived from ligands present in FBS. 1.5 ng/ml BMP-9 was than added in parallel with test compounds for 2 h at 37° C., 5% CO2 in order to identify compounds which block functional activity of ALK1 leading to phosphorylation and nuclear translocation of SMAD1/5/8.
After fixation (15 min 4% Formaldehyd in PBS) and permeabilization (10 min 0.2% Triton X-100 in PBS) an indirect immunocytochemical staining is performed with a specific Phospho-Smad1/5 (Ser463/465) antibody (Cell Signaling #9516) and Alexa488-labelled secondary anti-rabbit-IgG-antibody. DNA staining with Propidium Iodide allowed parallel cell counting. Image acquisition and analysis was performed on an MDS ImageXpress Ultra confocal High Content Reader using the image analysis software MetaXpress. Final read-out were % nuclei with a pSMAD1/5 signal above a defined background.
The final DMSO concentration in the assay was 0.5%. DMSO-treated HUVEC cells served as neutral control (=0%) and cells treated with 10 μM of a reference inhibitor described in a patent served as inhibitor control (=−100%). Raw data were normalised to the neutral and inhibitory references. The assay was performed as dose response (10 compound dilutions, 1 nM-30 μM).

Regarding `CN1CCCN(c2ccc3[nH]c(-c4cc(-c5cccc(CO)c5)c[nH]c4=O)nc3c2)CC1` [Compound A33, 5-(3-Hydroxymethyl-phenyl)-3-[5-(4-methyl-[1,4]diazepan-1-yl)-1H-benzimidazol-2-yl]-1H-pyridin-2-one], the IC50 was found to be 11 nM in test [1], 14 nM in test [2], 1900 nM in test [3] and 900 nM in test [4].

For the molecule `O=c1[nH]cc(-c2cc(CO)ccc2Cl)cc1-c1nc2cc(N3CCNCC3)ccc2[nH]1` [Compound A22, 5-(2-Chloro-5-hydroxymethyl-phenyl)-3-(5-piperazin-1-yl-1H-benzimidazol-2-yl)-1H-pyridin-2-one dihydrochloride], the IC50 in test [1] stood at 16 nM; in test [2], 3.5 nM; in test [3], 2100 nM; in test [4] it was 3300 nM.

`CN1CCN(c2ccc3[nH]c(-c4cc(-c5ccc(CO)cc5)c[nH]c4=O)nc3c2)CC1` [Compound A35, 5-(4-Hydroxymethyl-phenyl)-3-[5-(4-methyl-piperazin-1-yl)-1H-benzimidazol-2-yl]-1H-pyridin-2-one]: the IC50 was 11 nM in test [1], 16 nM in test [2], 3200 nM in test [3] and 720 nM in test [4].

As to `O=c1[nH]cc(-c2ccc(F)c(CO)c2)cc1-c1nc2cc(N3CCNCC3)ccc2[nH]1` [Compound A20, 5-(4-Fluoro-3-hydroxymethyl-phenyl)-3-(5-piperazin-1-yl-1H-benzimidazol-2-yl)-1H-pyridin-2-one], the IC50 in test [1] turned out to be 19 nM; in test [2], 24 nM; in test [3], 4400 nM; in test [4], 7800 nM.

Turning to `O=c1[nH]cc(-c2cccc(CO)c2)cc1-c1nc2cc(N3CCC(O)CC3)ccc2[nH]1` [Compound A12, 5-(3-Hydroxymethyl-phenyl)-3-[5-(4-hydroxy-piperidin-1-yl)-1H-benzimidazol-2-yl]-1H-pyridin-2-one], the IC50 in test [1] is 57 nM; in test [2], 28 nM; in test [3], 4100 nM; in test [4] it was 7200 nM.

With `Cc1cc2c(-c3c[nH]c(=O)c(-c4nc5cc(N6CCNCC6)ccc5[nH]4)c3)ccnc2[nH]1` [Compound A48a, 5-(2-Methyl-1H-pyrrolo[2,3-b]pyridin-4-yl)-3-(5-piperazin-1-yl-1H-benzimidazol-2-yl)-1H-pyridin-2-one], the IC50 in test [1] turned out to be 44 nM; in test [2], 49 nM; in test [3], 130 nM; in test [4], 2700 nM.

Take `O=c1[nH]cc(-c2cccc(CO)c2)cc1-c1nc2cc(N3CCNCC3)ccc2[nH]1` [Compound A13, 5-(3-Hydroxymethyl-phenyl)-3-(5-piperazin-1-yl-1H-benzimidazol-2-yl)-1H-pyridin-2-one dihydrochloride]: the IC50 in test [1] was found to be 1 nM; in test [2], 1 nM; in test [3], 970 nM; in test [4], 400 nM.

For the molecule `CN(C)C1CCN(c2ccc3[nH]c(-c4cc(-c5cccc(CO)c5)c[nH]c4=O)nc3c2)CC1` [Compound A36, 3-[5-(4-Dimethylamino-piperidin-1-yl)-1H-benzimidazol-2-yl]-5-(3-hydroxymethyl-phenyl)-1H-pyridin-2-one formate], the IC50 was determined as 22 nM in test [1], 2.9 nM in test [2], 1100 nM in test [3] and 240 nM in test [4].

Regarding `O=c1[nH]cc(-c2ccnc3[nH]ccc23)cc1-c1nc2cc(Oc3ccncc3)ccc2[nH]1` [Compound A40, 3-[5-(Pyridin-4-yloxy)-1H-benzimidazol-2-yl]-5-(1H-pyrrolo[2,3-b]pyridin-4-yl)-1H-pyridin-2-one], the IC50 in test [1] came to 56 nM; in test [2], 73 nM; in test [3], 8100 nM; in test [4], 5200 nM.

With `CN1CCC(Oc2ccc3[nH]c(-c4cc(-c5ccnc6ccccc56)c[nH]c4=O)nc3c2)CC1` [Compound A59, 3-[6-(1-Methyl-piperidin-4-yloxy)-1H-benzimidazol-2-yl]-5-quinolin-4-yl-1H-pyridin-2-one], the IC50 in test [1] came to 80 nM; in test [2], 170 nM; in test [3], 2500 nM; in test [4], 12000 nM.

Turning to `CN1CCN(c2ccc3[nH]c(-c4cc(-c5cnc6[nH]ccc6c5)c[nH]c4=O)nc3c2)CC1` [Compound A51, 3-[6-(4-Methyl-piperazin-1-yl)-1H-benzimidazol-2-yl]-5-(1H-pyrrolo[2,3-b]-pyridin-5-yl)-1H-pyridin-2-one], the IC50 turned out to be 100 nM in test [1], 120 nM in test [2], 10000 nM in test [3] and 5600 nM in test [4].

For the molecule `CN1CCN(c2ccc3[nH]c(-c4cc(-c5cccc(CO)c5)c[nH]c4=O)nc3c2)CC1` [Compound A27, 5-(3-Hydroxymethyl-phenyl)-3-[5-(4-methyl-piperazin-1-yl)-1H-benzimidazol-2-yl]-1H-pyridin-2-one], the IC50 in test [1] stood at 12 nM; in test [2], 13 nM; in test [3], 1700 nM; in test [4], 450 nM.
